Measurements as given in the supplement of paper PMC11061612.

Assays:
Experiment in all cases: combination Emax (second highest fraction inhibited in the dose matrix, 72 h); higher = more inhibition; extreme values may be limits of the assay
[1] = system: MOLT-4 (T-Lymphoblastic Leukemia)
How it was run: (§1)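 Bliss excess equals the observed combination effect minus the expected value EA + EB − EA·EB, where EA and EB are the effects of each agent alone. Combination Emax is the second-highest inhibition within the matrix. Inhibition was scaled from CellTiter-Glo 2.0 luminescence, with 0 set by vehicle wells and 1 by blank wells, after 72 hours of two-drug dosing of cells plated in 1536-well plates.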

[2] = system: KGN (Other Solid Carcinomas)
How it was run: as §1

[3] = system: OACM5-1 (Esophageal Adenocarcinoma)
How it was run: as §1

[4] = system: CADO-ES1 (Ewing's Sarcoma)
How it was run: as §1

[5] = system: EFO-21 (Ovarian Carcinoma)
How it was run: as §1

[6] = system: SKN (Other Solid Carcinomas)
How it was run: as §1

[7] = system: EJM (Plasma Cell Myeloma)
How it was run: as §1

[8] = system: NCI-H1838 (Lung Adenocarcinoma)
How it was run: as §1

[9] = system: NCI-H650 (Lung Adenocarcinoma)
How it was run: as §1

[10] = system: HCC1500 (Breast Carcinoma)
How it was run: as §1

[11] = system: KOPN-8 (B-Lymphoblastic Leukemia)
How it was run: as §1

[12] = system: ALL-SIL (T-Lymphoblastic Leukemia)
How it was run: as §1

[13] = system: NCI-H2122 (Lung Adenocarcinoma)
How it was run: as §1

SK-N-AS (Neuroblastoma) = system: SK-N-AS (Neuroblastoma)
How it was run: as §1

[14] = system: HCC1937 (Breast Carcinoma)
How it was run: as §1

[15] = system: MOG-G-UVW (Low Grade Glioma)
How it was run: as §1

[16] = system: MDA-MB-453 (Breast Carcinoma)
How it was run: as §1

[17] = system: HCC2998 (Colorectal Carcinoma)
How it was run: as §1

[18] = system: ME-180 (Cervical Carcinoma)
How it was run: as §1

[19] = system: NCI-H1092 (Small Cell Lung Carcinoma)
How it was run: as §1

Row | SMILES | combination Emax [1] | combination Emax [2] | combination Emax [3] | combination Emax [4] | combination Emax [5] | combination Emax [6] | combination Emax [7] | combination Emax [8] | combination Emax [9] | combination Emax [10] | combination Emax [11] | combination Emax [12] | combination Emax [13] | combination Emax (SK-N-AS (Neuroblastoma)) | combination Emax [14] | combination Emax [15] | combination Emax [16] | combination Emax [17] | combination Emax [18] | combination Emax [19]
1 | COc1cccc(OCCCN)c1-c1cc(Nc2cnc(C#N)cn2)n[nH]1 [Prexasertib] + CN(C)CCCOc1ccc(-c2ccc3ncc4c(c3c2)n(C2CCOCC2)c(=O)n4C)cn1 [AZD0156] (first compound max 1 µM, 7x7, partner max 1 µM) | 1 | 0.753 | 0.624 | 0.956 | 0.731 | 0.421 | 0.93 | 0.598 | 0.671 | 0.348 | 0.947 | 0.958 | 0.975 | 1 | 0.537 | 0.88 | 0.926 | 0.969 | 0.324 | 0.74
2 | CCN(CCO)CCCOc1ccc2c(Nc3cc(CC(=O)Nc4cccc(F)c4)[nH]n3)ncnc2c1 [AZD2811] + C[C@@H]1COCCN1C2=NC(=NC(=C2)C3(CC3)[S@](=N)(=O)C)C4=C5C=CNC5=NC=C4 [AZD6738] (first compound max 1 µM, 7x7, partner max 10 µM) | 1 | 0.822 | 0.44 | 0.843 | 0.45 | 0.393 | 0.858 | 0.643 | 0.117 | 0.312 | 0.855 | 0.981 | 0.902 | 0.784 | 0.47 | 0.783 | 0.807 | 0.777 | 0.43 | 0.236
3 | CN(C)CCCOc1ccc(-c2ccc3ncc4c(c3c2)n(C2CCOCC2)c(=O)n4C)cn1 [AZD0156] + CCN(CCO)CCCOc1ccc2c(Nc3cc(CC(=O)Nc4cccc(F)c4)[nH]n3)ncnc2c1 [AZD2811] (first compound max 1 µM, 7x7, partner max 1 µM) | 0.968 | 0.551 | 0.232 | 0.323 | 0.116 | 0.042 | 0.0982 | 0.263 | 0.124 | 0.298 | 0.554 | 0.976 | 0.358 | 0.183 | 0.159 | 0.615 | 0.144 | 0.183 | 0.192 | 0.181
4 | CC(=O)c1c(C)c2cnc(Nc3ccc(N4CCNCC4)cn3)nc2n(C2CCCC2)c1=O [Palbociclib] + Cc1c2c(nn1C)CSCc1cc(n(C)n1)CSc1cc(c3ccccc3c1)OCCCc1c(C(=O)O)n(C)c3c-2c(Cl)ccc13 [AZD5991] (first compound max 10 µM, 7x7, partner max 1 µM) | 0.9 | 0.644 | 0.932 | 0.46 | 0.256 | 0.385 | 0.443 | 0.363 | 0.244 | 0.434 | 0.917 | 0.446 | 0.773 | 0.461 | 0.242 | 0.526 | 0.282 | 0.905 | 0.151 | 0.608
5 | Cc1c2c(nn1C)CSCc1cc(n(C)n1)CSc1cc(c3ccccc3c1)OCCCc1c(C(=O)O)n(C)c3c-2c(Cl)ccc13 [AZD5991] + C[C@@H]1COCCN1C2=NC(=NC(=C2)C3(CC3)[S@](=N)(=O)C)C4=C5C=CNC5=NC=C4 [AZD6738] (first compound max 1 µM, 7x7, partner max 10 µM) | 1 | 0.772 | 0.928 | 0.989 | 0.484 | 0.42 | 1 | 0.72 | 0.352 | 0.781 | 0.998 | 1 | 0.957 | 0.966 | 0.557 | 0.756 | 0.886 | 0.994 | 0.485 | 0.887
6 | CN(C)CCCOc1ccc(-c2ccc3ncc4c(c3c2)n(C2CCOCC2)c(=O)n4C)cn1 [AZD0156] + C[C@@H]1COCCN1C2=NC(=NC(=C2)C3(CC3)[S@](=N)(=O)C)C4=C5C=CNC5=NC=C4 [AZD6738] (first compound max 1 µM, 7x7, partner max 10 µM) | 0.97 | 0.848 | 0.57 | 0.903 | 0.549 | 0.344 | 0.894 | 0.745 | 0.226 | 0.298 | 0.927 | 0.887 | 0.945 | 0.805 | 0.543 | 0.816 | 0.831 | 0.831 | 0.343 | 0.174
7 | COc1nnc2ccc(N3CCC(c4ccc(OCCN5CCN(C)C(=O)[C@H]5C)cc4)CC3)nn12 [AZD5153] + C[C@@H]1COCCN1C2=NC(=NC(=C2)C3(CC3)[S@](=N)(=O)C)C4=C5C=CNC5=NC=C4 [AZD6738] (first compound max 1 µM, 7x7, partner max 10 µM) | 0.999 | 0.822 | 0.886 | 0.88 | 0.488 | 0.71 | 0.867 | 0.441 | 0.51 | 0.454 | 1 | 1 | 0.981 | 0.716 | 0.434 | 0.769 | 0.837 | 0.926 | 0.696 | 0.523
8 | COc1cccc(OCCCN)c1-c1cc(Nc2cnc(C#N)cn2)n[nH]1 [Prexasertib] + CCc1c2c(nc3ccc(O)cc13)-c1cc3c(c(=O)n1C2)COC(=O)[C@]3(O)CC [SN-38] (first compound max 1 µM, 7x7, partner max 0.3 µM) | 1 | 0.89 | 0.854 | 0.996 | 0.671 | 0.803 | 0.952 | 0.946 | 0.815 | 0.934 | 1 | 1 | 0.984 | 0.997 | 0.92 | 0.987 | 0.929 | 1 | 0.948 | 0.899
9 | CC1(C)CCC(CN2CCN(c3ccc(C(=O)NS(=O)(=O)c4ccc(NCC5CCOCC5)c([N+](=O)[O-])c4)c(Oc4cnc5[nH]ccc5c4)c3)CC2)=C(c2ccc(Cl)cc2)C1 [Venetoclax] + COc1cc(Nc2ncc3c(n2)-c2ccc(Cl)cc2C(c2c(F)cccc2OC)=NC3)ccc1C(=O)O [Alisertib] (first compound max 1 µM, 7x7, partner max 10 µM) | 0.959 | 0.685 | 0.663 | 0.957 | 0.359 | 0.577 | 0.146 | 0.437 | 0.319 | 0.805 | 1 | 1 | 0.939 | 0.818 | 0.387 | 0.722 | 0.314 | 0.225 | 0.603 | 0.684
10 | Cc1c2c(nn1C)CSCc1cc(n(C)n1)CSc1cc(c3ccccc3c1)OCCCc1c(C(=O)O)n(C)c3c-2c(Cl)ccc13 [AZD5991] + C=CCn1c(=O)c2cnc(Nc3ccc(N4CCN(C)CC4)cc3)nc2n1-c1cccc(C(C)(C)O)n1 [AZD1775] (first compound max 1 µM, partner max 1 µM) | 1 | 0.725 | 0.928 | 0.925 | 0.552 | 0.436 | 1 | 0.835 | 0.748 | 0.49 | 0.998 | 1 | 0.979 | 0.964 | 0.617 | 0.761 | 0.4 | 0.962 | 0.52 | 0.696
